Data reported in US6800481B1, “Stable macroscopic membranes formed by self-assembly of amphiphilic peptides and uses therefor” (priority 1992, dated 2004).
Several values for one entry are separate records, joined by “and”; a condition that tells them apart may be missing. Equal entries are not always repeated. Where two headings read alike, the source gives them in different places. Residues, ends and D or L forms follow the SMILES beside them.

Columns and labels:
PC12 = test: Cell attachment to biopolymer sheets, normal or Ca++ and Mg++ free medium (Table 6); format: cell-based, rat; design: key: ++++: strong attachment; +++: moderate attachment; ++: weak attachment; +/−: little or no attachment
Description: (§1) Cells were pretreated in serum-free medium containing 30 μg/ml cyclohexamide for 2 hours before introduction to the peptide membranes. The cells used for the calcium and magnesium-free condition were pre-equilibrated in Ca^++ and Mg^++ free medium containing 5 mM EDTA for 15 minutes before introduction to the peptide membranes. Cells were allowed to attach to the peptide membranes for 30 minutes, 1 and 8 hours at 37° C. The attached cells were shaken for […] on a rotary rocker at 60 r.p.m., then scored under phase contrast microscopy.

PC12NGF = test: as above; format: cell-based, rat; design: key: ++++: strong attachment; +++: moderate attachment; ++: weak attachment; +/−: little or no attachment
Description: as §1

[1] = Testing of peptides for macroscopic membrane formation (phase-contrast microscope, Congo Red staining); format: physicochemical
From the text: The effect of length and sequence on membrane formation was examined using several peptides (Table 1 and Example 3). […] Very long peptides, e.g., of about 200 amino acids, may encounter problems due to insolubility and intramolecular interactions which destabilize membrane formation. […] The optimal lengths for membrane formation will probably vary with the amino acid composition.
The EAK12 and EAK16 tested for membrane formation were acetylated and aminylated at both N- and C-terminal ends. […] The peptides were initially dissolved in water (5 mg/ml) or in 23% acetonitrile (10 mg/ml). A volume of 5-10 microliters of the dissolved peptides were applied to the DMEM medium, PBS or water. The formation of the membrane was first observed under a phase-contrast microscope and then, by the naked eye after staining with Congo Red.

[2] = format: physicochemical; settings: for [θ2] λ2 195 nm / −[θ1] λ1 218 nm: 8 μM in water
Description: Circular dichroism (CD) spectra were taken on an Aviv Model 60DS spectropolarimeter using program 60HDS for data processing. Because EAK16 contains both positively and negatively charged residues, the peptide itself can serve as a buffer. CD samples were prepared and measured at 25° C., unless otherwise indicated. All reagents were ultrapure and solutions were filtered through a […] before use. Circular dichroism (CD) spectroscopy was used to monitor the stability of the β-sheet structure of EAK16 under various conditions. Dilute […] concentrations. […] A 3 mM stock EAK16 solution was mixed in water to a concentration of 20 μM, allowed to equilibrate, and the CD spectrum measured. The solution was then diluted five times by two-fold serial dilutions to final concentrations of […], 10, 5.0, 2.5, 1.25 and 0.625 μM, allowed to equilibrate and CD spectra taken. […] Temperature. The CD spectra of 8 μM EAK16 at 25, 37, 55, 70 and 90° C. in water were measured. […] EAK16 has a calculated pI Of 6.71. It was assumed that changes of pH would have a great effect on the β-sheet structure, especially when the charged groups are neutralized. […] The 3 mM stock solution of EAK16 was mixed with pH buffers at pH 1.5, 3, 7, and 11 to a final concentration of 10 μM and allowed to equilibrate for 4 hours before taking CD measurements. […] Chemical denaturants. […] The peptide (3 mM stock) was mixed with water or different concentrations of guanidine-HCl or urea and allowed to incubate overnight before taking CD measurements. SDS was added to a peptide solution to a final concentration of 0.1% and incubated for 30 minutes.

[3] = test system: nerve growth factor-differentiated rat PC12 cells; format: cell-based
From the text: The membranes also appear to be non-cytotoxic. The EAK16 peptide formed macroscopic membranes when added to a tissue culture of nerve growth factor-differentiated rat PC12 cells.

physchem = format: physicochemical
Description: EAK16 peptide stock solutions were prepared at a concentration of approximately 0.57 mM (1 mg/ml) in water. The molecular weight of EAK16 is 1,760. […] The concentration was determined by the ninhydrin methods using internal controls.

[4] = test system: NGF differentiated PC12 cells, retonic acid-differentiated human neuroblastoma and mouse cerebellum granule cells; test: Neurite outgrowth on biopolymers, several neuronal cell types; format: cell-based
From the text: The invention further relates to the regeneration of nerves with filaments of the membranes of the present invention. Nerve regeneration can be promoted and directed by transplanting filaments of RAD16 along the correct path to their targets. This would be extremely useful for patients with severed peripheral nerves. Such a technology could be refined to help people with spinal cord injuries.

3T3 = test: Cell attachment to biopolymer sheets, normal or Ca++ and Mg++ free medium (Table 6); format: cell-based, mouse; design: key: ++++: strong attachment; +++: moderate attachment; ++: weak attachment; +/−: little or no attachment
Description: as §1

- formation of macroscopic membranes ([1]; identical conditions, in words): could undergo self-assembly
- membranous structure in Water ([1]; water): −
- CD spectra over temperature ([2]; 25, 37, 55, 70 and 90° C.): unaffected over the range of 25-90 °C
- Ratio [θ2]/[θ1] ([2]; 25 ° C.): 3.9
- [θ2] λ2 195 nm ([2]; 25 ° C.): 62 X1,000
- −[θ1] λ1 218 nm ([2]; 25 ° C.): 16 X1,000
- Ratio [θ2]/[θ1] ([2]; 37 ° C.): 4.0
- [θ2] λ2 195 nm ([2]; 37 ° C.): 60 X1,000
- −[θ1] λ1 218 nm ([2]; 37 ° C.): 15 X1,000
- Ratio [θ2]/[θ1] ([2]; 55 ° C.): 3.9
- [θ2] λ2 195 nm ([2]; 55 ° C.): 55 X1,000
- −[θ1] λ1 218 nm ([2]; 55 ° C.): 14 X1,000
- Ratio [θ2]/[θ1] ([2]; 70 ° C.): 4.1
- [θ2] λ2 195 nm ([2]; 70 ° C.): 54 X1,000
- −[θ1] λ1 218 nm ([2]; 70 ° C.): 13 X1,000
- Ratio [θ2]/[θ1] ([2]; 90 ° C.): 4.0
- [θ2] λ2 195 nm ([2]; 90 ° C.): 50 X1,000
- −[θ1] λ1 218 nm ([2]; 90 ° C.): 12.5 X1,000
- β-sheet structure in chemical denaturants (CD spectra) ([2]; SDS at 90° C., 1-7 M guanidine-HCl or 8 M urea at room temperature for over 16 hours): not significantly affected
- decrease of mean residue ellipticity (−[θ]218 nm), thermal profile ([2]; over 25-90° C.): 22%
- ratios of ellipticity at 194 nm/217 nm ([2]; over the temperature range of 25-90° C.): approximately 4.0
- decrease of ellipticity (−[θ]218 nm), pH profile ([2]; pH 1.5 to 3, 7 and 11): less than 10%
- solubility (physchem; maximal solubility in water): 3000 µM and ~5000 µg/mL
- solubility (physchem; solubility in 23% actonitrile): ≤ 6000 µM and ~10000 µg/mL
Structure (SMILES): CC(=O)N[C@@H](C)C(=O)N[C@@H](CCC(=O)O)C(=O)N[C@@H](C)C(=O)N[C@@H](CCC(=O)O)C(=O)N[C@@H](C)C(=O)N[C@@H](CCCCN)C(=O)N[C@@H](C)C(=O)N[C@@H](CCCCN)C(=O)N[C@@H](C)C(=O)N[C@@H](CCC(=O)O)C(=O)N[C@@H](C)C(=O)N[C@@H](CCC(=O)O)C(=O)N[C@@H](C)C(=O)N[C@@H](CCCCN)C(=O)N[C@@H](C)C(=O)N[C@@H](CCCCN)C(N)=O [EAK16] (Ac-AEAEAKAKAEAEAKAK-NH2)
- cell attachment (PC12; PC12, 30 min, Ca^++ & Mg^++ free, EDTA serum-free + Cyclohex): ++++
- cell attachment (PC12; PC12, 30 min, Normal Ca^++ & Mg^++ serum-free + Cyclohex): ++++
- cell attachment (PC12; PC12, 60 min, Ca^++ & Mg^++ free, EDTA serum-free + Cyclohex): ++++
- cell attachment (PC12; PC12, 60 min, Normal Ca^++ & Mg^++ serum-free + Cyclohex): ++++
- cell attachment (PC12NGF; 30 min, Ca^++ & Mg^++ free, EDTA serum-free + Cyclohex): ++++
- cell attachment (PC12NGF; 30 min, Normal Ca^++ & Mg^++ serum-free + Cyclohex): ++++
- cell attachment (PC12NGF; 60 min, Ca^++ & Mg^++ free, EDTA serum-free + Cyclohex): ++++
- cell attachment (PC12NGF; 60 min, Normal Ca^++ & Mg^++ serum-free + Cyclohex): ++++
- β-sheet structure on dilution of the peptide ([2]; 0.625 to 20 μM in water): not significantly affected by dilution of the peptide
- effect on appearance or rate of growth of the cells [3]: did not affect the appearance or rate of growth of the cells
- neurite outgrowth on biopolymers [4]: not on EAK16-based biopolymers
- cell attachment (3T3; 3T3, 30 min, Ca^++ & Mg^++ free, EDTA serum-free + Cyclohex): ++++
- cell attachment (3T3; 3T3, 30 min, Normal Ca^++ & Mg^++ serum-free + Cyclohex): ++++
- cell attachment (3T3; 3T3, 60 min, Ca^++ & Mg^++ free, EDTA serum-free + Cyclohex): ++++
- cell attachment (3T3; 3T3, 60 min, Normal Ca^++ & Mg^++ serum-free + Cyclohex): ++++
